We go through two compounds from patent US20070232614A1, “Therapeutic Agent for Nonviral Hepatitis” (Mitsubishi Pharma Corporation, priority 2004, published 2007).

Assay [1] has as its system concanavalin A-induced hepatitis. Particulars: prophylactic administration before injection of concanavalin A; mouse; non-patent references 3 and 4; cited from earlier work.
For assay [2], the system named is severe alcoholic hepatitis. Particulars: non-patent references 1 and 2; cited from earlier work.
Assay [3] concerns concanavalin A-induced hepatitis. In words: Action on concanavalin A-induced hepatitis (plasma ALT 8 hr after Con A). Particulars: therapeutic administration 3 hr after Con A injection (20 mg/kg i.v.), mouse. Format: in vivo, female BALB/c mouse. As to the method: 20 mg/kg of concanavalin A (Con A, type V, manufactured by Sigma) was intravenously administered to female BALB/c mouse (purchased from Charles River Laboratories JAPA, INC.). […] The administration time in the prophylactic administration test of pentoxifylline (manufactured by Sigma) or anti-mouse TNF-α antibody (manufactured by Genzyme-Techne) was set according to the method of Shirin et al. [Journal of Hepatology, 29, 60-67 (1998)] or Gantner et al. [Hepatology, 21, 190-198 (1995)]. The administration time in the therapeutic administration test was always set to 3 hr after Con A injection. To be specific, pentoxifylline (100 mg/kg) was intraperitoneally administered 2 hr before or 3 hr after Con A injection, anti-mouse TNF-α antibody (250 μg, was intravenously administrated 15 minutes before or 3 hr after Con A injection, and plasma SALT was similarly measured 8 hr later.
In addition, the test compound (10 mg/kg) was intravenously administrated 15 minutes before or 3 hr after Con A injection, and plasma ALT concentration was similarly measured.
The results are shown in mean±standard error.

On to `CC(=O)CCCCn1c(=O)c2c(ncn2C)n(C)c1=O` [pentoxifylline], for which, in assay [1], the “inhibition of the progress of concanavalin A-induced hepatitis” value was “inhibit the progress”. Moreover, the “effectiveness for severe alcoholic hepatitis” value in assay [2] is “effective”. Also, the “therapeutic effect in the hepatitis model (progress of concanavalin A-induced hepatitis, plasma ALT)” value in assay [3] is recorded as “do not inhibit progress”.
With `CC(=O)NC1(c2ccc(CN3CCN(c4ncccn4)CC3)cc2)CC1.Cl` [test compound, N-(1-(4-((4-(pyrimidin-2-yl)piperazin-1-yl)methyl)phenyl)cyclopropyl)acetamide hydrochloride], the “therapeutic effect in the hepatitis model (progress of concanavalin A-induced hepatitis, plasma ALT)” value in assay [3] is on record as “shows a therapeutic effect”.
